Results published in patent publication US20060134097A1, “Process for production of aqueous colloid of graphite silica particles emitting far-infrared rays” (priority 2004, published 2006).

Assays:
[1] = test system: Tyrosinase derived from mushroom; assay: tyrosinase activity inhibition; assay type: biochemical; conditions: control agents
Method: The above aqueous colloid (conc) of the present invention as a basic material, and ascorbic acid and hydroquinone as control agents were used. Tyrosinase used that derived from mushroom (from Sigma Co., Ltd.: 2,500 U/mg). Specifically, for testing an inhibiting effect against tyrosinase activity, 4 kinds of solutions were prepared. (1) a tyrosine solution (0.5 mg/ml); 0.5 ml loading, (2) a 1/15 M phosphate buffer (pH 6.8); 2.0 ml loading, (3) a tyrosine solution (6.0 mg/100 ml); 0.5 ml loading, and (4) a test solution: the nanocolloid particle and/or the aqueous colloid of the present invention, ascorbic acid, or hydroquinone (0.005, 0.01, 0.05, 0.1, 0.5 mg) dissolved in buffer; 2.0 ml loading. The solutions of (1) to (4) were mixed to incubate at 37° C. for one hour, followed by the measurement of absorbance (At) at 475 nm. In addition, the absorbance obtained by adding the phosphate buffer (2 ml) in place of each test solution to carry out the same operation (Ab) was used as control to determine an inhibition rate. The inhibition rate was calculated from the resultant Ab and At values using the formula: inhibition rate=(Ab−At)/Ab×100.

[2] = test system: writhing reaction induced by acetic acid in mice; assay: acetic acid-induced writhing reaction; assay type: in vivo; conditions: count over 10 minutes from 10 minutes after 0.7% acetic acid i.p.; s.c. 30 minutes before: aspirin 300 mg/kg, colloid 0.1 ml/10 g
Description: Then, an analgesic effect of the aqueous colloid of the present invention in mice was studied using a writhing reaction induced by acetic acid. In the observation of the behavior of twisting in response e.g. to a pain due to acetic acid irritation in the peritoneal cavity (writhing), when the administration of an agent suppresses the writhing reaction, the agent can be said to have depressed pseudo affective response, assessing it as having an anti-nociceptive effect. 1) ddy strain male mice (7-week old; 27 to 38 g; 6 mice per group); 2) drug solution: aspirin in 0.1 M Tris-Hydrochloride buffer as a solvent (pH 7.8); […] 4) the aqueous colloid of the present invention: 100 ml of the nanocolloid of the present invention to which 0.9 g of sodium chloride was added to make an isotonicsolution. 1) dividing mice into 3 groups to subcutaneously administer, to an aspirin (300 mg/kg) treatment group, the aspirin solution, the Tris-Hydrochloride buffer to a control group, and the aqueous nanocolloid (0.1 ml/10 g) to the remaining group; […] 3) starting to count the frequency of writhing 10 minutes after the administration of the acetic acid and recording a frequency of writhing during a period of 10 minutes. (See FIG. 10)

O=C1O[C@H]([C@@H](O)CO)C(O)=C1O [ascorbic acid]
tyrosinase activity [1]: inhibited the tyrosinase activity

Oc1ccc(O)cc1 [hydroquinone]
tyrosinase activity [1]: inhibited the tyrosinase activity

CC(=O)Oc1ccccc1C(=O)O [aspirin]
frequency of writhing [2]: 10.5±1.2
